Consider 2 compounds from US12005055B2, “Methods for shrinking pituitary tumors” (Corcept Therapeutics Incorporated, priority 2018, dated 2024).

In one series the target is glucocorticoid receptor (Homo sapiens, UniProt P04150). The note with it: HepG2 cells; cited from earlier work.
A further series relates to pituitary tumors. The note with it: cited from earlier work.
In series [1] the target is T1, mineralocorticoid receptor (Homo sapiens, UniProt P08235).
T1 sequence (P08235 1-984): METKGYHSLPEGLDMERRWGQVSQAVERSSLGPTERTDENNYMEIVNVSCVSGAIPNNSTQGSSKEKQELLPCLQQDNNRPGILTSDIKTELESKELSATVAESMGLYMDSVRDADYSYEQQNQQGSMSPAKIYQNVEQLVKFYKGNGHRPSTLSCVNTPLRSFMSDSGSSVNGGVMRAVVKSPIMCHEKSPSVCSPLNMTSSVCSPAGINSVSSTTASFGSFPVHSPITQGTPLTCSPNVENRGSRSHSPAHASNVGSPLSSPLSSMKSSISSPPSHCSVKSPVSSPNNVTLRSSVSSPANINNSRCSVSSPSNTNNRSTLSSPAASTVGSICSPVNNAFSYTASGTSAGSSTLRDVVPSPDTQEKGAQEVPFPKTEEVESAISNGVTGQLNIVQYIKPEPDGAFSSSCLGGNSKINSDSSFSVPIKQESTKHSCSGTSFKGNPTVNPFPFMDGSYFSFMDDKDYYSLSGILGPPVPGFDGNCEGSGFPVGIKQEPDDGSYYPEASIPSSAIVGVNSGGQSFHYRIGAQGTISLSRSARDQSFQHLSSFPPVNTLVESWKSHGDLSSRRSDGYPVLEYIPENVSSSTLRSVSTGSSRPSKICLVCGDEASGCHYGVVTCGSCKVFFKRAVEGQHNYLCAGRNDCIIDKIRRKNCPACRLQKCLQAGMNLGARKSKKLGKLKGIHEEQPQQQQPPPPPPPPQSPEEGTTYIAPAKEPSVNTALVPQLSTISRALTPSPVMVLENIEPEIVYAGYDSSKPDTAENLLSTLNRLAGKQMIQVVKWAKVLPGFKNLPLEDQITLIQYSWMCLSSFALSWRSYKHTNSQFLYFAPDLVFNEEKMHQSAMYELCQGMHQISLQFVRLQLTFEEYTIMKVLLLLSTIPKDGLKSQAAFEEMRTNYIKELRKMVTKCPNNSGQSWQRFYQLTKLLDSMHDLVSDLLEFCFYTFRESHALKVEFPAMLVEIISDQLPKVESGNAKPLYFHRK
The settings on record: cited from earlier work.

For a further series, the system named is pituitary macroadenoma. Put plainly: MRI measurement of pituitary tumor size in Cushing's Disease patients given relacorilant. It is filed as in vivo, human. An excerpt: The relacorilant administration disclosed herein can reduce tumor size and confer beneficial clinical outcomes to patients having a pituitary tumor. Methods for measuring the size of a pituitary tumor are well-known to skilled artisans in the field. For example, magnetic resonance imaging (MRI) and other imaging methods may be used to detect tumor shrinkage. Other methods for determining the effect of cancer therapy on tumor size are also known in the art, e.g., as described in the Response Evaluation Criteria in Solid Tumors (“RECIST”) guidelines, discussed, for example, in Chalian et al., Radiographics 31(7):2093-2105 (2011), and available at “protocolDevelopment/docs/recist_guideline.pdf” of the website “ctep.cancer.gov”.
Measuring tumor size is typically achieved by imaging-based techniques, including magnetic resonance imaging (MRI), computed tomography (CT), positron-emission tomography (PET) and other techniques. For example, MRI, CT, and PET scans can provide accurate and reliable anatomic information not only about tumor shrinkage or growth but also progression of disease by identifying either growth in existing lesions or the development of new lesions or tumor metastasis. Tumor size, including a reduction in tumor size, may be determined by measuring a linear dimension of a tumor (measuring may be accomplished, for example, by counting pixels on a digital image, by measuring a distance on a printed image or from an image projected onto a screen); by measuring two different linear dimensions of a tumor; by measuring three, or more, different linear dimensions of a tumor; by calculating (or estimating, based on measurements) a cross-sectional area of a tumor; by calculating (or estimating, based on measurements) a volume of a tumor; or by other means known in the art. […]

The next series concerns the target progesterone receptor (Homo sapiens, UniProt P06401). The settings on record: cited from earlier work.
The next series deals with androgen receptor (Homo sapiens, UniProt P10275). The settings on record: cited from earlier work.
Series [2] can be described thus: Clinical studies of relacorilant in patients with endogenous hypercortisolism. The class given is in vivo, human. The source says: The following examples show the results of relacorilant administration to patients suffering from pituitary tumors.
The subject of another series is estrogen receptor. The settings on record: cited from earlier work.

Structures are written as SMILES. Entries after “also recorded” stand apart in the source; their conditions may differ.

Sequence of progesterone receptor (P06401 whole entry, species assumed): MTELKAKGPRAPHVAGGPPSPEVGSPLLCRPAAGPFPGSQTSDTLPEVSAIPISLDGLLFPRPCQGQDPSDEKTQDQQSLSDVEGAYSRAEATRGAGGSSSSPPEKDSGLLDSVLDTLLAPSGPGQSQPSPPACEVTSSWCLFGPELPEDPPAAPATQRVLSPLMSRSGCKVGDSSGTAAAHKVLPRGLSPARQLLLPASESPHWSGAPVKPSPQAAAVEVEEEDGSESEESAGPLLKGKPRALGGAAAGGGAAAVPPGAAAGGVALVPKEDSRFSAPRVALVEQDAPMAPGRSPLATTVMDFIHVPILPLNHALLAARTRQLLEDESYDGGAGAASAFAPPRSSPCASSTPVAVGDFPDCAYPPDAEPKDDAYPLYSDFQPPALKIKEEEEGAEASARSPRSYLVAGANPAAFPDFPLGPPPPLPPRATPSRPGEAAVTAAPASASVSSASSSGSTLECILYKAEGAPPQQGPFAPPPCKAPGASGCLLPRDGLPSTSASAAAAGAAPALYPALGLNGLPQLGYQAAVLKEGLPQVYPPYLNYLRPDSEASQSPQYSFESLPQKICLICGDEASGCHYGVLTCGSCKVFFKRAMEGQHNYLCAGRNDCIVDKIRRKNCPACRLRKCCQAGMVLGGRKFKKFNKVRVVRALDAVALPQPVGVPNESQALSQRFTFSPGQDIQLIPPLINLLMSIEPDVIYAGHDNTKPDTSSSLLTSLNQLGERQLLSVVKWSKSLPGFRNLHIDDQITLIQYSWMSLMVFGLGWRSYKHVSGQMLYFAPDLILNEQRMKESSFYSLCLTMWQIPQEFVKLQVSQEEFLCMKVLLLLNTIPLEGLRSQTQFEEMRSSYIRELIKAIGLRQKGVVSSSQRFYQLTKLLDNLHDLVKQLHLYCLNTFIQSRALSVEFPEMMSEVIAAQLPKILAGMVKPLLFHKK
Sequence of glucocorticoid receptor (P04150 whole entry): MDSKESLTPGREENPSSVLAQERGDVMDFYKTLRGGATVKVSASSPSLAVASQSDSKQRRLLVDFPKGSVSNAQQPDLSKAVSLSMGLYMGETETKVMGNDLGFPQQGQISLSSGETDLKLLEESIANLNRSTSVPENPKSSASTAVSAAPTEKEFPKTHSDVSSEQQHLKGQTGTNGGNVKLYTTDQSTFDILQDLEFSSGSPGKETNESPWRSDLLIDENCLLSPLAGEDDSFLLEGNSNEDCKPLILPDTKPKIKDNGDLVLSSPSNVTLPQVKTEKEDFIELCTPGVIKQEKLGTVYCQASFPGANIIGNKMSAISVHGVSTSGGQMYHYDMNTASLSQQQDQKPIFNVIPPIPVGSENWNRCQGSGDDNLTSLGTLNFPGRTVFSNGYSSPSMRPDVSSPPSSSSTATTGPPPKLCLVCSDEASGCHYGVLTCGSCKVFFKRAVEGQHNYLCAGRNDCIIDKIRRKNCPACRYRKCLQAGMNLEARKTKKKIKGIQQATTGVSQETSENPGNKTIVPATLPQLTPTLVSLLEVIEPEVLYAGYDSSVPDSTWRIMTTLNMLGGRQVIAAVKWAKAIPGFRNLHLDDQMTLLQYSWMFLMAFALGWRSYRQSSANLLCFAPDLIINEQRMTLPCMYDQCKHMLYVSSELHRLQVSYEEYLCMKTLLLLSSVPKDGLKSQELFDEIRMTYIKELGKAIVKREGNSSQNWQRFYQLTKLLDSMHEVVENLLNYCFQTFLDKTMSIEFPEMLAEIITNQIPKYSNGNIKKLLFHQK
Sequence of androgen receptor (P10275 whole entry, species assumed): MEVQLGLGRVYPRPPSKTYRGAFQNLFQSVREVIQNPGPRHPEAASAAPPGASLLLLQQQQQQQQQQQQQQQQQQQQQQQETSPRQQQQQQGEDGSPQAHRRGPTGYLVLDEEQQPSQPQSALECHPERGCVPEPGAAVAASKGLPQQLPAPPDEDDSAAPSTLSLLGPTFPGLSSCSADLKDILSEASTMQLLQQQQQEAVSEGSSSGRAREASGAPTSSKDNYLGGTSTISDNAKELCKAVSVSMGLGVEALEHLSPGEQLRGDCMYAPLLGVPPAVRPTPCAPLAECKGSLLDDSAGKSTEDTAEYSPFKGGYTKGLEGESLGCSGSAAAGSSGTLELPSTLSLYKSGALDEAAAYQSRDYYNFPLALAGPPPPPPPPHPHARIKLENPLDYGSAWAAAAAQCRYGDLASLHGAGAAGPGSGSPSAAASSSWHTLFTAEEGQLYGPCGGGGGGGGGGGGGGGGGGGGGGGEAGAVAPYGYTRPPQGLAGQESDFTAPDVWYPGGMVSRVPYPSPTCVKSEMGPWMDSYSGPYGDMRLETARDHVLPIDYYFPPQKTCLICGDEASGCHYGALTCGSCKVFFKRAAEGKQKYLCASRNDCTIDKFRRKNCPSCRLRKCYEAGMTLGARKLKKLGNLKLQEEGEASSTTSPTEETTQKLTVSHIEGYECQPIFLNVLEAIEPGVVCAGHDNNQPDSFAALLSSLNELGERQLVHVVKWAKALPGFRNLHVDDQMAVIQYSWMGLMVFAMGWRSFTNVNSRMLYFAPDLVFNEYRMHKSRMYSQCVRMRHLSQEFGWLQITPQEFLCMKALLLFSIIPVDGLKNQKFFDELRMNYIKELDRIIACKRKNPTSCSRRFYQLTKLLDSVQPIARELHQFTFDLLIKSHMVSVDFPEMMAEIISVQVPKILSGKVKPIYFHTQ

Regarding `CC#C[C@]1(O)CC[C@H]2[C@@H]3CCC4=CC(=O)CCC4=C3[C@@H](c3ccc(N(C)C)cc3)C[C@@]21C` [mifepristone], the “effect on tyrosine aminotransferase (TAT) activity” value on glucocorticoid receptor is on record as “decreases”. The “tumor regression (MRI)” value in the series on pituitary tumors (17 Cushing's Disease patients with visible tumors (10 macroadenomas), mifepristone for 24 weeks) is reported as “no regression”. Moreover, the “MRI images of tumor over treatment” value in the series with pituitary tumors (17 patients, in one patient the tumor increased in size with 10 weeks of mifepristone) was “stable in all but one patient”.

With `Cn1cc(S(=O)(=O)N2CCC3=Cc4c(cnn4-c4ccc(F)cc4)C[C@]3(C(=O)c3cc(C(F)(F)F)ccn3)C2)cn1` [relacorilant, (R)-(1-(4-fluorophenyl)-6-((1-methyl-1H-pyrazol-4-yl)sulfonyl)-4,4a,5,6,7,8-hexahydro-1H-pyrazolo[3,4-g]isoquinolin-4a-yl)(4-(trifluoromethyl)pyridin-2-yl)methanone], the “effect on mineralocorticoid receptor” value in series [1] is listed as “does not significantly affect”. In the series on pituitary macroadenoma (Example 2 patient, following three months of relacorilant administration), the tumor volume shrinkage is given as about 40%. Further, in the series on pituitary macroadenoma (Example 2 patient, pre-treatment measure 14,300 mm^3), the “multiplication of the three post-treatment measurements (indication of tumor volume)” value is recorded as 8,778 mm^3. In addition, the “effect on pituitary tumor size” value in the series on pituitary macroadenoma (two Cushing's Disease patients (both macroadenomas), three months of daily relacorilant) was “significant pituitary tumor shrinkage; also recorded: shrunk; also recorded: effective to reduce the size of pituitary tumors”. In addition, the “effect on progesterone receptor” value on progesterone receptor is on record as “does not significantly affect”. In addition, the “effect on androgen receptor” value at androgen receptor is given as “does not significantly affect”. The tolerability entry in series [2] (clinical studies) is on record as “well tolerated”. Moreover, in series [2] (patients with endogenous hypercortisolism), the “glycemic and hypertension control and other manifestations of cortisol excess” value is “significantly improved”. Moreover, in the series on estrogen receptor, the “effect on estrogen receptor” value is reported as “does not significantly affect”.
